The supplement of paper PMC13380429

What was measured:
Settings in all cases: 72 h
Caco-2 [1] = test: cell viability relative to DMSO; higher = less toxic
Calu-3 [2] = test: as above
HepG2 [3] = test: as above
U2OS [4] = test: as above
Vero E6 [5] = test: as above
Caco-2 [6] = test: relative viability EC50 (midpoint between 100% and the lowest measured viability); higher = less toxic
Calu-3 [7] = test: as above
HepG2 [8] = test: as above
U2OS [9] = test: as above
Vero E6 [10] = test: as above
Caco-2 [11] = test: drug sensitivity score (DSS) for viability; higher = more toxic; extreme values may be limits of the assay
Calu-3 [12] = test: as above
HepG2 [13] = test: as above
U2OS [14] = test: as above
Vero E6 [15] = test: as above

`NS(=O)(=O)c1cc2c(cc1Cl)N=C(CSCc1ccccc1)NS2(=O)=O` [benzthiazide] was tested, and the cell viability (Caco-2 [1]; 1 nM) was 103%, the cell viability (Caco-2 [1]; 10 nM) was 101% and the cell viability (Caco-2 [1]; 100 nM) was 93.2%. For the same compound, the cell viability (Caco-2 [1]; 1000 nM) was 96.2%, the cell viability (Caco-2 [1]; 10000 nM) was 80.7% and the cell viability (Calu-3 [2]; 1 nM) was 84.5%. It also gave a cell viability (Calu-3 [2]; 10 nM) of 104%, a cell viability (Calu-3 [2]; 100 nM) of 101% and a cell viability (Calu-3 [2]; 1000 nM) of 106%. For the same compound, the cell viability (Calu-3 [2]; 10000 nM) was 101%, the cell viability (HepG2 [3]; 1 nM) was 105% and the cell viability (HepG2 [3]; 10 nM) was 86%. The cell viability (HepG2 [3]; 100 nM) was 101%, the cell viability (HepG2 [3]; 1000 nM) was 94.3% and the cell viability (HepG2 [3]; 10000 nM) was 89.7%. For the same compound, the cell viability (U2OS [4]; 1 nM) was 100%, the cell viability (U2OS [4]; 10 nM) was 98.8% and the cell viability (U2OS [4]; 100 nM) was 94.6%. For the same compound, the cell viability (U2OS [4]; 1000 nM) was 98.4%, the cell viability (U2OS [4]; 10000 nM) was 96% and the cell viability (Vero E6 [5]; 1 nM) was 102%. The cell viability (Vero E6 [5]; 10 nM) was 98.5%, the cell viability (Vero E6 [5]; 100 nM) was 98.4% and the cell viability (Vero E6 [5]; 1000 nM) was 101%. For the same compound, the cell viability (Vero E6 [5]; 10000 nM) was 98.9%, the “relative viability EC50” value (Caco-2 [6]) was > 10 µM and the “relative viability EC50” value (Calu-3 [7]) was > 10 µM. For the same compound, the “relative viability EC50” value (HepG2 [8]) was > 10 µM, the “relative viability EC50” value (U2OS [9]) was > 10 µM and the “relative viability EC50” value (Vero E6 [10]) was > 10 µM. For the same compound, the drug sensitivity score (Caco-2 [11]) was 0.9, the drug sensitivity score (Calu-3 [12]) was 0 and the drug sensitivity score (HepG2 [13]) was 0. For the same compound, the drug sensitivity score (U2OS [14]) was 0 and the drug sensitivity score (Vero E6 [15]) was 0.
For `CC(C)(Oc1ccc(Cl)cc1)C(=O)OCCOC(=O)c1cccnc1` [etofibrate], the cell viability (Caco-2 [1]; 1 nM) was 95.3%, the cell viability (Caco-2 [1]; 10 nM) was 88.1% and the cell viability (Caco-2 [1]; 100 nM) was 94%. It also gave a cell viability (Caco-2 [1]; 1000 nM) of 92.1%, a cell viability (Caco-2 [1]; 10000 nM) of 105% and a cell viability (Calu-3 [2]; 1 nM) of 86.8%. For the same compound, the cell viability (Calu-3 [2]; 10 nM) was 89.6%, the cell viability (Calu-3 [2]; 100 nM) was 99.1% and the cell viability (Calu-3 [2]; 1000 nM) was 111%. It also gave a cell viability (Calu-3 [2]; 10000 nM) of 101%, a cell viability (HepG2 [3]; 1 nM) of 92.7% and a cell viability (HepG2 [3]; 10 nM) of 106%. The cell viability (HepG2 [3]; 100 nM) was 96%, the cell viability (HepG2 [3]; 1000 nM) was 99.1% and the cell viability (HepG2 [3]; 10000 nM) was 111%. For the same compound, the cell viability (U2OS [4]; 1 nM) was 101%, the cell viability (U2OS [4]; 10 nM) was 94.1% and the cell viability (U2OS [4]; 100 nM) was 102%. For the same compound, the cell viability (U2OS [4]; 1000 nM) was 94.9%, the cell viability (U2OS [4]; 10000 nM) was 96.6% and the cell viability (Vero E6 [5]; 1 nM) was 93.5%. For the same compound, the cell viability (Vero E6 [5]; 10 nM) was 99.7%, the cell viability (Vero E6 [5]; 100 nM) was 91.7% and the cell viability (Vero E6 [5]; 1000 nM) was 93.9%. For the same compound, the cell viability (Vero E6 [5]; 10000 nM) was 98.5%, the “relative viability EC50” value (Caco-2 [6]) was > 10 µM and the “relative viability EC50” value (Calu-3 [7]) was > 10 µM. For the same compound, the “relative viability EC50” value (HepG2 [8]) was > 10 µM, the “relative viability EC50” value (U2OS [9]) was > 10 µM and the “relative viability EC50” value (Vero E6 [10]) was > 10 µM. The drug sensitivity score (Caco-2 [11]) was 0, the drug sensitivity score (Calu-3 [12]) was 0 and the drug sensitivity score (HepG2 [13]) was 0. The drug sensitivity score (U2OS [14]) was 0 and the drug sensitivity score (Vero E6 [15]) was 0.
`CCOC(=O)CNC(=O)[C@@H]1CCCN1C(=O)Cc1ccccc1` [DVD-111] was tested, and the cell viability (Caco-2 [1]; 1 nM) was 110%, the cell viability (Caco-2 [1]; 10 nM) was 102% and the cell viability (Caco-2 [1]; 100 nM) was 114%. It also gave a cell viability (Caco-2 [1]; 1000 nM) of 97%, a cell viability (Caco-2 [1]; 10000 nM) of 107% and a cell viability (Calu-3 [2]; 1 nM) of 106%. For the same compound, the cell viability (Calu-3 [2]; 10 nM) was 98.4%, the cell viability (Calu-3 [2]; 100 nM) was 106% and the cell viability (Calu-3 [2]; 1000 nM) was 93.7%. It also gave a cell viability (Calu-3 [2]; 10000 nM) of 116%, a cell viability (HepG2 [3]; 1 nM) of 98.8% and a cell viability (HepG2 [3]; 10 nM) of 97.2%. It also gave a cell viability (HepG2 [3]; 100 nM) of 90.9%, a cell viability (HepG2 [3]; 1000 nM) of 93.5% and a cell viability (HepG2 [3]; 10000 nM) of 96.9%. It also gave a cell viability (Vero E6 [5]; 1 nM) of 103%, a cell viability (Vero E6 [5]; 10 nM) of 105% and a cell viability (Vero E6 [5]; 100 nM) of 98.8%. For the same compound, the cell viability (Vero E6 [5]; 1000 nM) was 104%, the cell viability (Vero E6 [5]; 10000 nM) was 101% and the “relative viability EC50” value (Caco-2 [6]) was > 10 µM. The “relative viability EC50” value (Calu-3 [7]) was > 10 µM, the “relative viability EC50” value (HepG2 [8]) was > 10 µM and the “relative viability EC50” value (Vero E6 [10]) was > 10 µM. The drug sensitivity score (Caco-2 [11]) was 0, the drug sensitivity score (Calu-3 [12]) was 0 and the drug sensitivity score (HepG2 [13]) was 0. For the same compound, the drug sensitivity score (Vero E6 [15]) was 0.
